Assay results reported in US20040115666A1, “Method for identifying compounds modulating reverse cholesterol transport” (priority 2001, published 2004).

Tests used:
[1] = system: mice transgenic for the human apo A-I gene; conditions: diet rich in TCA 0.5% m/m, one week
Source text: Effect of TCA on Plasma Concentrations of Cholesterol and Apo A-I and on Hepatic Expression of apo A-I in Mice Transgenic for the Human apo A-I Gene (FIG. 1)
Example 1 illustrates the effect of a diet rich in taurocholate on serum cholesterol and human apo A-I levels and on lipid profile and hepatic expression of human apo A-I in transgenic mice expressing the apo A-I gene in a C57BL genetic background.
Ten transgenic mice expressing the apo A-I gene in a C57BL genetic background (IFFA-CREDO, L'Arbresle, France) were genotyped by PCR and divided into two groups of five animals. The first group received a normal diet for one week while the second was given a diet rich in TCA (taurocholic acid, 0.5% m/m). Blood was collected after a 12 hour fast by retroorbital puncture under barbital anesthesia. Serum samples were collected and stored at −20° C. pending analysis. After one week of dietary treatment, animals were sacrificed and liver specimens were collected and frozen for analysis. Human apo A-I levels in serum were measured before and after the diet as previously described (Peters, J. Biol. Chem., 1997, 272 (43): 27307-12). Serum cholesterol and lipid profiles after FPLC were measured as previously described (Raspé et al., J. Lipid Res., 1999, 40 (11): 2099-2110). Total RNA was extracted from liver specimens as previously described (Chomczynski et al., Anal. Biochem., 1987, 162 (1): 156-9) and quantified by Northern Blot hybridization (Peters, 1997) using human apo A-I and 28S as probes (Peters, J. Biol. Chem., 1997, 272 (43): 27307-12).

[2] = system: apo A-I expression in HepG2 cells; assay: apo A-I mRNA expression in HepG2 cells (Northern blot); type: cell-based, human
Protocol: HepG2 cells were grown in DMEM medium supplemented with 10% fetal calf serum, penicillin/streptomycin, sodium pyruvate and nonessential amino acids and incubated at 37° C in a humidified 5% CO2/95% air atmosphere. […] Total RNA was extracted as previously described (Chomczynski et al., Anal. Biochem., 1987, 162 (1): 156-9) and quantified by Northern Blot hybridization (Peters, J. Biol. Chem., 1997, 272 (43): 27307-12) using human apo A-I and 28S as probes (Peters, J. Biol. Chem., 1997, 272 (43): 27307-12).
HepG2 cells were grown in DMEM medium supplemented with 10% fetal calf serum, penicillin/streptomycin, sodium pyruvate and nonessential amino acids and incubated at 37° C. in a humidified 5% CO2/95% air atmosphere. Total RNA was extracted as previously described (Chomczynski et al., Anal. Biochem., 1987, 162 (1): 156-9) and quantified by Northern Blot hybridization (Peters, J. Biol. Chem., 1997, 272 (43): 27307-12) using human apo A-I and 28S as probes (Peters, J. Biol. Chem., 1997, 272 (43): 27307-12).
(§1) HepG2 were cotransfected as described in example 5. Cellular mRNA was obtained as described above in example 2.

FXR = molecular target: T1, FXR (Homo sapiens, UniProt Q96RI1); conditions: FIG. 4
T1 sequence (Q96RI1 1-472 isoform Q96RI1-2): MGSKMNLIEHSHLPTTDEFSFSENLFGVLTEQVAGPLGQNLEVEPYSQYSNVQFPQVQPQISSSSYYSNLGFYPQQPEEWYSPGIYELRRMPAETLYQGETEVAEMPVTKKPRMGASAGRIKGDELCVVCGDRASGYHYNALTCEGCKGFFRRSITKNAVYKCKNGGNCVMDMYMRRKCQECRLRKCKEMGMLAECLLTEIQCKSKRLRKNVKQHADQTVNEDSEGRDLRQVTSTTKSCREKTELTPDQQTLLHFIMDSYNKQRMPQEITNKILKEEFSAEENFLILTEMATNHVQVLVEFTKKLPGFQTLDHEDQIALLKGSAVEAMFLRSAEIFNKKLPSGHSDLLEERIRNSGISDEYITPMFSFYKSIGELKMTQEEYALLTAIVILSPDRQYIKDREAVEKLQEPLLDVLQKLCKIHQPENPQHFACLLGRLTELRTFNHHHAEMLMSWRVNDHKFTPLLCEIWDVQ

human apo A-I promoter = assay: luciferase reporter under human apo A-I promoter fragments in HepG2 cells overexpressing hFXR; type: cell-based
Protocol: HepG2 cells were cotransfected by lipofection with 300 ng of pCDNA3-hFXR vector for FXR expression, 300 ng of pSG5-mRXRα vector and 1 μg of the indicated reporter vectors enabling expression of the luciferase reporter gene under the control of fragments −254/+91, −192/+91 and −40/+91 of the apo A-I promoter. […] Total DNA was adjusted to 2 μg using plasmid pBKS+. After a 3 hour transfection, cells were incubated in the culture medium with bile acids at the indicated concentrations for 36 hours.
HepG2 cells were transfected by lipofection with 300 ng of pCDNA3-hFXR vector for expression of hFXR and 1 μg of the indicated reporter vectors allowing expression of a luciferase reporter gene under the control wild type or mutated fragment −254/+91 of the human apo A-I gene promoter, under the control of the herpes simplex virus thymidine kinase promoter or under the control of three copies of site A or site C of the human apo A-I gene cloned upstream of the herpes simplex virus thymidine kinase promoter. […] The construct containing fragment −254/+91 of the apo A-I promoter in which site A is mutated was obtained by directed mutagenesis of site A, in the wild type construct, using the Quick Change Site directed mutagenesis kit (Stratagene, La Jolla, Calif., USA), oligonucleotide 5′-[…]-3′ (SEQ ID NO: 4) and the complementary oligonucleotide. The construct containing fragment −254/+91 of the apo A-I promoter in which site C is mutated was obtained by directed mutagenesis of site C, in the wild type construct, using the Quick Change Site directed mutagenesis kit (Stratagene, La Jolla, Calif., USA), oligonucleotide 5′-[…]-3′ (SEQ ID NO: 3) and the complementary oligonucleotide. The construct containing fragment −254/+91 of the apo A-I promoter in which sites A and C are mutated was obtained by directed mutagenesis of site A, in the Cmut construct, using the Quick Change Site directed mutagenesis kit (Stratagene, La Jolla, Calif., USA), oligonucleotide 5′-[…]-3′ (SEQ ID NO: 4) and the complementary oligonucleotide. The construct denoted TkpGL3 containing the herpes simplex virus thymidine kinase promoter cloned upstream of a luciferase reporter gene has been previously described (Raspé et al., J. Biol. Chem., 2001, 276 (4): 2865-2871). The C3TK construct containing three copies of site C of the human apo A-I promoter cloned upstream of the herpes simplex virus thymidine kinase promoter and the luciferase reporter gene was obtained by oriented cloning of three copies of the double-stranded oligonucleotide corresponding to the wild type site C sequence (SEQ ID NO: 1) into the SmaI site of vector TkpGL3. The A3TK construct containing three copies of site A of the human apo A-I promoter cloned upstream of the herpes simplex virus thymidine kinase promoter and the luciferase reporter gene was obtained by oriented cloning of three copies of the double-stranded oligonucleotide corresponding to the wild type site A sequence (SEQ ID NO: 2) into the SmaI site of vector TkpGL3. Total DNA was adjusted to 2 μg using plasmid pBKS+. After a 3 hour transfection, cells were incubated in the culture medium with the bile acids at the indicated concentrations for 36 hours.
as §1

[3] = system: site C of the human apo A-I promoter; assay: luciferase reporter C3TK (three copies of site C upstream of TK promoter) in HepG2 cells overexpressing hFXR; type: cell-based
Protocol: (§2) HepG2 cells were transfected by lipofection with 300 ng of pCDNA3-hFXR vector for expression of hFXR and 1 μg of the indicated reporter vectors allowing expression of a luciferase reporter gene under the control wild type or mutated fragment −254/+91 of the human apo A-I gene promoter, under the control of the herpes simplex virus thymidine kinase promoter or under the control of three copies of site A or site C of the human apo A-I gene cloned upstream of the herpes simplex virus thymidine kinase promoter. […] The construct containing fragment −254/+91 of the apo A-I promoter in which site A is mutated was obtained by directed mutagenesis of site A, in the wild type construct, using the Quick Change Site directed mutagenesis kit (Stratagene, La Jolla, Calif., USA), oligonucleotide 5′-[…]-3′ (SEQ ID NO: 4) and the complementary oligonucleotide. The construct containing fragment −254/+91 of the apo A-I promoter in which site C is mutated was obtained by directed mutagenesis of site C, in the wild type construct, using the Quick Change Site directed mutagenesis kit (Stratagene, La Jolla, Calif., USA), oligonucleotide 5′-[…]-3′ (SEQ ID NO: 3) and the complementary oligonucleotide. […]

[4] = system: site A of the human apo A-I promoter; assay: luciferase reporter A3TK (three copies of site A upstream of TK promoter) in HepG2 cells overexpressing hFXR; type: cell-based
Protocol: as §2

[5] = system: herpes simplex virus thymidine kinase promoter; assay: luciferase reporter TkpGL3 (TK promoter only) in HepG2 cells overexpressing hFXR; type: cell-based, human; conditions: overexpression of hFXR, CDCA
Protocol: as §2

[6] = system: FXR (hFXR) (Homo sapiens); assay: cell_activity; conditions: 1 µM GW4064, HepG2
[7] = overexpression of hFXR and mRXRα, CDCA, 36 hours
[8] = overexpression of hFXR, panel A
[9] = hFXR overexpression, 1 μM GW4064, in words

With `C[C@H](CCC(=O)NCCS(=O)(=O)O)[C@H]1CC[C@H]2[C@@H]3[C@H](O)C[C@@H]4C[C@H](O)CC[C@]4(C)[C@H]3C[C@H](O)[C@]12C` [TCA, taurocholic acid] the “hepatic expression of apo A-I” value [1] was “reduces”, the “plasma concentrations of apo A-I” value [1] was “reduces” and the “plasma concentrations of cholesterol” value [1] was “reduces”. For the same molecule, the “apo A-I expression in HepG2 cells” value ([2]; increasing concentrations) was “reduce” and the FXR activation (FXR) was “activate”.
In the case of `C[C@H](CCC(=O)O)[C@H]1CC[C@H]2[C@@H]3[C@H](O)C[C@@H]4C[C@H](O)CC[C@]4(C)[C@H]3CC[C@]12C` [CDCA, chenodeoxycholic acid], the “apo A-I expression in HepG2 cells” value ([2]; 50 μM) is reported as “considerably reduces”, the “effect on apo A-I expression after actinomycin D preincubation” value ([2]; CDCA 50 μM, 12-h preincubation with actinomycin D (5 g/ml)) is reported as “offset” and the “apo A-I expression in HepG2 cells” value ([2]; increasing concentrations) is reported as “reduce”. The “activity of fragment −40/+91 (minimal promoter) of the apo A-I gene promoter” value (human apo A-I promoter; [7]) was “not”, the “activity of fragment −192/+91 of the apo A-I gene promoter” value (human apo A-I promoter; [7]) was “represses” and the “activity of fragment −254/+91 of the apo A-I gene promoter” value (human apo A-I promoter; [7]) was “represses”. The “activity of fragment −254/+91 with site A mutated (A mut construct)” value (human apo A-I promoter; overexpression of hFXR, CDCA) was “represses”, the “activity of wild type fragment −254/+91 (wt construct)” value (human apo A-I promoter; overexpression of hFXR, CDCA) was “represses” and the “activity of fragment −254/+91 with site C mutated (C mut construct)” value (human apo A-I promoter; [8]) was “transcriptional activation”. The “activity of fragment −254/+91 with sites A and C mutated (AC mut construct)” value (human apo A-I promoter; [8]) was “loss of response”, the “activity of construct C3TK” value ([3]; overexpression of hFXR, CDCA) was “represses” and the “activity of construct A3TK” value ([4]; overexpression of hFXR, CDCA) was “activated”. The “activity of construct TkpGL3” value [5] was “not affected”.
In the case of apo A-I promoter site C wt, the activity (% of control luciferase) ([6]; C3TK, three copies, repression) is reported as 61.8.
Molecule apo A-I promoter site A wt has an activity (% of control luciferase) ([6]; A3TK, three copies, activation) of 1120.
apo A-I promoter -254/+91 was tested, and the activity (% of control luciferase) ([6]; construct ABC, repression) was 56.8.
In the case of `CC(C)c1onc(-c2c(Cl)cccc2Cl)c1COc1ccc(/C=C/c2cccc(C(=O)O)c2)c(Cl)c1` [GW4064], the “apo A-I expression in HepG2 cells” value ([2]; GW4064, in words) is reported as “markedly reduces”, the “activity of fragment −254/+91 of the human apo A-I promoter (construct ABC)” value (human apo A-I promoter; [9]) is reported as “represses” and the “activity of construct C3TK” value [3, 9] is reported as “represses”. For the same molecule, the “activity of construct A3TK” value ([4]; hFXR overexpression, GW4064, in words) was “activated”.
